Experimental data from patent US10336792B2, “Antimicrobial peptide dendrimers” (priority 2014, dated 2019).
≈ marks a conversion by molar mass, not a printed value. Positions of bridges follow the written chain, without caps; N, C: chain ends. Residues, ends and D or L forms follow the SMILES beside them. Groups on a side chain read outwards from the residue. Chains are numbered I, II in the order given. *: point of attachment. LeuLys(Leu) = CC(C)C[C@H](N)C(=O)NCCCC[C@H](NC(=O)[C@@H](N)CC(C)C)C(=O)*

Test system: Pseudomonas aeruginosa (strain PA01)
Experiment: microbe, parasite or virus in culture
Format: cell-based
Details: strain
Method: Antimicrobial activity was assayed against Bacillus subtilis (strain BR151), Escherichia coli (strain DH5α) and Pseudomonas aeruginosa (strain PA01). Microdilution broth method was used to determine the minimal inhibitory concentration (MIC). A colony of bacteria was grown in LB-medium overnight at 37° C. The concentration was quantified by measuring absorbance at 600 nm and diluted to OD600=0.1 (1×10^8 CFU/mL). The samples were prepared as stock solutions of 1 mg mL^−1 in H2O and diluted serially by ⅔ in nutrient LB in a 96-well microtiterplate (Cornstar, polypropylene, untreated). The sample solutions (50 μL) were mixed with the diluted bacterial suspension with an OD600 nm of 0.001 (50 μL). […] The plates were incubated at 37° C. until satisfactory growth (18-24 h). For each test, two columns of the plate were kept for sterility control (SC, broth only) and growth control (GC, broth with bacterial inoculums, no antibiotics). 10 μL of a solution of MTT (0.1% in H2O) was added to each well. The minimal inhibitory concentration (MIC) was defined as the lowest concentration of the antimicrobial substance (peptide dendrimer) that inhibited visible growth of the tested bacteria (yellow) with the unaided eye. For microbiological study the linear peptide LysTyrLysLysAlaLeuLysLysLeuAlaLysLeuLeu (SEQ ID No. 1) was used as reference.
All peptides were tested for their activity against P. aeruginosa PAO1 in a broth dilution assay (Wiegand, I. et al., 2008, Nat. Protoc., 3, 163-75; Clinical and Laboratory Standards Institute document M7-A7 7th Edition) to determine the MIC (minimal inhibitory concentration) values. The stock solutions of the peptide dendrimers were diluted serially by ⅔ in nutrient LB in 96-well microtiter plates. Bacteria were grown in nutrient LB overnight at 37° C. After dilution the bacteria were added to the peptides and incubated overnight (18-24 h) at 37° C. […] The position of the amino acids between the branching units seems to be optimal if the hydrophobic amino acid is the first counting from C-terminus and the charged one is on the second position. Introducing Ala as additional hydrophobic amino acid reduces activity (MSt-120). […] Also assembling charged or hydrophobic sections between the branching units leads to loss of activity whereas altering L-amino acids to D-amino acids maintains activity leading to the hypothesis that the mechanism of action should not be receptor mediated.

Row | SMILES | MIC P. aeruginosa PAO1
1 | CC(C)C[C@H](NC(=O)[C@H](CC(C)C)NC(=O)[C@H](CCCCN)NC(=O)[C@H](CCCCNC(=O)[C@H](CC(C)C)NC(=O)[C@H](CCCCN)NC(=O)[C@H](CC(C)C)NC(=O)[C@H](CCCCNC(=O)[C@H](CC(C)C)NC(=O)[C@H](CCCCN)NC(=O)[C@H](CCCCNC(=O)[C@H](CC(C)C)NC(=O)[C@@H](N)CCCCN)NC(=O)[C@H](CC(C)C)NC(=O)[C@@H](N)CCCCN)NC(=O)[C@H](CC(C)C)NC(=O)[C@H](CCCCN)NC(=O)[C@H](CCCCNC(=O)[C@H](CC(C)C)NC(=O)[C@@H](N)CCCCN)NC(=O)[C@H](CC(C)C)NC(=O)[C@@H](N)CCCCN)NC(=O)[C@H](CC(C)C)NC(=O)[C@H](CCCCN)NC(=O)[C@H](CC(C)C)NC(=O)[C@H](CCCCNC(=O)[C@H](CC(C)C)NC(=O)[C@H](CCCCN)NC(=O)[C@H](CCCCNC(=O)[C@H](CC(C)C)NC(=O)[C@@H](N)CCCCN)NC(=O)[C@H](CC(C)C)NC(=O)[C@@H](N)CCCCN)NC(=O)[C@H](CC(C)C)NC(=O)[C@H](CCCCN)NC(=O)[C@H](CCCCNC(=O)[C@H](CC(C)C)NC(=O)[C@@H](N)CCCCN)NC(=O)[C@H](CC(C)C)NC(=O)[C@@H](N)CCCCN)C(N)=O [YGO-009, (KL)8(KKL)4(KLKL)2(KKLL)] (I: H-KLK([Leu-Lys])KLKLKLKKLL-NH2 / II: H-KLK([Leu-Lys])KLKLKL / III: H-KLK([Leu-Lys])KL / IV: H-KLK([Leu-Lys])KL; amide I:6-IV:C, I:10-II:C, II:6-III:C) | 2 µg/mL (≈ 0.41 µM)
2 | CC(C)C[C@H](NC(=O)[C@H](CCCCN)NC(=O)[C@H](CC(C)C)NC(=O)[C@H](CCCCNC(=O)[C@H](CC(C)C)NC(=O)[C@H](CCCCN)NC(=O)[C@H](CC(C)C)NC(=O)[C@H](CCCCNC(=O)[C@H](CC(C)C)NC(=O)[C@H](CCCCN)NC(=O)[C@H](CC(C)C)NC(=O)[C@H](CCCCNC(=O)[C@H](CC(C)C)NC(=O)[C@H](CCCCN)NC(=O)[C@@H](N)CC(C)C)NC(=O)[C@H](CC(C)C)NC(=O)[C@H](CCCCN)NC(=O)[C@@H](N)CC(C)C)NC(=O)[C@H](CC(C)C)NC(=O)[C@H](CCCCN)NC(=O)[C@H](CC(C)C)NC(=O)[C@H](CCCCNC(=O)[C@H](CC(C)C)NC(=O)[C@H](CCCCN)NC(=O)[C@@H](N)CC(C)C)NC(=O)[C@H](CC(C)C)NC(=O)[C@H](CCCCN)NC(=O)[C@@H](N)CC(C)C)NC(=O)[C@H](CC(C)C)NC(=O)[C@H](CCCCN)NC(=O)[C@H](CC(C)C)NC(=O)[C@H](CCCCNC(=O)[C@H](CC(C)C)NC(=O)[C@H](CCCCN)NC(=O)[C@H](CC(C)C)NC(=O)[C@H](CCCCNC(=O)[C@H](CC(C)C)NC(=O)[C@H](CCCCN)NC(=O)[C@@H](N)CC(C)C)NC(=O)[C@H](CC(C)C)NC(=O)[C@H](CCCCN)NC(=O)[C@@H](N)CC(C)C)NC(=O)[C@H](CC(C)C)NC(=O)[C@H](CCCCN)NC(=O)[C@H](CC(C)C)NC(=O)[C@H](CCCCNC(=O)[C@H](CC(C)C)NC(=O)[C@H](CCCCN)NC(=O)[C@@H](N)CC(C)C)NC(=O)[C@H](CC(C)C)NC(=O)[C@H](CCCCN)NC(=O)[C@@H](N)CC(C)C)C(N)=O [MIS-08, (LKL)8(KLKL)4(KLKL)2(KLKL)] (I: H-LKLK([Leu-Lys-Leu])LKLKLKLKLKL-NH2 / II: H-LKLK([Leu-Lys-Leu])LKLKLKL / III: H-LKLK([Leu-Lys-Leu])LKL / IV: H-LKLK([Leu-Lys-Leu])LKL; amide I:8-IV:C, I:12-II:C, II:8-III:C) | 4 µg/mL (≈ 0.642 µM)

The next lines start with the values.

Row | MIC P. aeruginosa PAO1 | SMILES
3 | 11 µg/mL (≈ 1.77 µM) | CC(C)C[C@H](NC(=O)[C@H](CC(C)C)NC(=O)[C@H](CCCCN)NC(=O)[C@H](CCCCNC(=O)[C@H](CC(C)C)NC(=O)[C@H](CC(C)C)NC(=O)[C@H](CCCCN)NC(=O)[C@H](CCCCNC(=O)[C@H](CC(C)C)NC(=O)[C@H](CC(C)C)NC(=O)[C@H](CCCCN)NC(=O)[C@H](CCCCNC(=O)[C@H](CC(C)C)NC(=O)[C@H](CC(C)C)NC(=O)[C@@H](N)CCCCN)NC(=O)[C@H](CC(C)C)NC(=O)[C@H](CC(C)C)NC(=O)[C@@H](N)CCCCN)NC(=O)[C@H](CC(C)C)NC(=O)[C@H](CC(C)C)NC(=O)[C@H](CCCCN)NC(=O)[C@H](CCCCNC(=O)[C@H](CC(C)C)NC(=O)[C@H](CC(C)C)NC(=O)[C@@H](N)CCCCN)NC(=O)[C@H](CC(C)C)NC(=O)[C@H](CC(C)C)NC(=O)[C@@H](N)CCCCN)NC(=O)[C@H](CC(C)C)NC(=O)[C@H](CC(C)C)NC(=O)[C@H](CCCCN)NC(=O)[C@H](CCCCNC(=O)[C@H](CC(C)C)NC(=O)[C@H](CC(C)C)NC(=O)[C@H](CCCCN)NC(=O)[C@H](CCCCNC(=O)[C@H](CC(C)C)NC(=O)[C@H](CC(C)C)NC(=O)[C@@H](N)CCCCN)NC(=O)[C@H](CC(C)C)NC(=O)[C@H](CC(C)C)NC(=O)[C@@H](N)CCCCN)NC(=O)[C@H](CC(C)C)NC(=O)[C@H](CC(C)C)NC(=O)[C@H](CCCCN)NC(=O)[C@H](CCCCNC(=O)[C@H](CC(C)C)NC(=O)[C@H](CC(C)C)NC(=O)[C@@H](N)CCCCN)NC(=O)[C@H](CC(C)C)NC(=O)[C@H](CC(C)C)NC(=O)[C@@H](N)CCCCN)C(N)=O [MIS-06, (KLL)8(KKLL)4(KKLL)2(KKLL)] (I: H-KLLK([Leu-Leu-Lys])KLLKKLLKKLL-NH2 / II: H-KLLK([Leu-Leu-Lys])KLLKKLL / III: H-KLLK([Leu-Leu-Lys])KLL / IV: H-KLLK([Leu-Leu-Lys])KLL; amide I:8-IV:C, I:12-II:C, II:8-III:C)
4 | 12 µg/mL (≈ 4.47 µM) | CC(C)C[C@H](NC(=O)[C@H](CCCCNC(=O)[C@H](CCCCN)NC(=O)[C@H](CCCCNC(=O)[C@@H](N)CC(C)C)NC(=O)[C@@H](N)CC(C)C)NC(=O)[C@H](CCCCN)NC(=O)[C@H](CCCCNC(=O)[C@@H](N)CC(C)C)NC(=O)[C@@H](N)CC(C)C)C(=O)NCCCC[C@H](NC(=O)[C@H](CC(C)C)NC(=O)[C@H](CCCCNC(=O)[C@H](CCCCN)NC(=O)[C@H](CCCCNC(=O)[C@@H](N)CC(C)C)NC(=O)[C@@H](N)CC(C)C)NC(=O)[C@H](CCCCN)NC(=O)[C@H](CCCCNC(=O)[C@@H](N)CC(C)C)NC(=O)[C@@H](N)CC(C)C)C(=O)N[C@@H](CCCCN)C(N)=O [MSt-147, (L)8(KK)4(KL)2(KK)] (I: H-LK(Leu)KK([Lys-LeuLys(Leu)])LKK-NH2 / II: H-LK(Leu)KK([Lys-LeuLys(Leu)])L; amide I:6-II:C)
5 | 3 µg/mL (≈ 0.614 µM) | CC(C)C[C@H](NC(=O)[C@H](CCCCN)NC(=O)[C@H](CC(C)C)NC(=O)[C@H](CCCCNC(=O)[C@H](CC(C)C)NC(=O)[C@H](CCCCN)NC(=O)[C@H](CCCCNC(=O)[C@H](CC(C)C)NC(=O)[C@@H](N)CCCCN)NC(=O)[C@H](CC(C)C)NC(=O)[C@@H](N)CCCCN)NC(=O)[C@H](CC(C)C)NC(=O)[C@H](CCCCN)NC(=O)[C@H](CCCCNC(=O)[C@H](CC(C)C)NC(=O)[C@@H](N)CCCCN)NC(=O)[C@H](CC(C)C)NC(=O)[C@@H](N)CCCCN)C(=O)NCCCC[C@H](NC(=O)[C@H](CC(C)C)NC(=O)[C@H](CCCCN)NC(=O)[C@H](CC(C)C)NC(=O)[C@H](CCCCNC(=O)[C@H](CC(C)C)NC(=O)[C@H](CCCCN)NC(=O)[C@H](CCCCNC(=O)[C@H](CC(C)C)NC(=O)[C@@H](N)CCCCN)NC(=O)[C@H](CC(C)C)NC(=O)[C@@H](N)CCCCN)NC(=O)[C@H](CC(C)C)NC(=O)[C@H](CCCCN)NC(=O)[C@H](CCCCNC(=O)[C@H](CC(C)C)NC(=O)[C@@H](N)CCCCN)NC(=O)[C@H](CC(C)C)NC(=O)[C@@H](N)CCCCN)C(=O)N[C@@H](CCCCN)C(=O)N[C@@H](CC(C)C)C(=O)N[C@@H](CCCCN)C(N)=O [YGO-010, (KL)8(KKL)4(KLKL)2(KKLK)] (I: H-KLK([Leu-Lys])KLKLKLKKLK-NH2 / II: H-KLK([Leu-Lys])KLKLKL / III: H-KLK([Leu-Lys])KL / IV: H-KLK([Leu-Lys])KL; amide I:6-IV:C, I:10-II:C, II:6-III:C)
